Values after ≈ are worked out from the molar mass of the structure shown.
Columns and labels:
mESC-D3 [1] = tested on: mESC-D3; parameters: method as in Scholz et al. [1999]; settings: ZEBET value printed beside hanging drop differentiation result; ref Scholz et al. [1999]; cited from earlier work
[2] = Manual human EST cytotoxicity assay, MTT, 5 d; settings: human
Description: (§1) The cytotoxicity assessment with a reduced assay time of 5 days combined with either NADH- or ATP-based detection was also carried out with human induced pluripotent stem cells (hiPSCs). […] Furthermore, differences in the cytotoxicity effects between the hiPSCs and HDFfs were more pronounced than in the mouse cells. Similar to the cytotoxicity-based assay the overall variance in the data is reduced when viability data was obtained by an ATP-based read-out.
(§2) The MTT cell viability assay was performed as described (Seiler and Spielmann [2011]) with modifications. In brief, 96-well cell culture plates were coated with gelatin (0.1%) before plating mESC-D3. All peripheral wells of the assay plate were filled with 200 μl growth media (“blank”). Afterward, NIH/3T3 and mESC-D3 were plated in growth media (1 × 10^4 cells/ml, 50 μl/well). […] Vehicle (PBS) and positive control (5-fluorouracil) wells were also included on all assay plates. Three and 5 days after seeding the cell supernatant was replaced by freshly prepared compound solution (200 μl/well). Seven days after seeding the cell viability was detected. Therefore, the cell supernatant was aspirated from all wells, MTT solution (5 mg/ml) was added (20 μl/well) and the assay plate was incubated for 2 h at 37 °C and 5% CO2 in a humidified atmosphere. Afterward, all liquid was removed from the wells and MTT desorb solution (0.7% SDS in 2-propanol (Carl Roth, Cat. No. 9866.5), pre-warmed to 37 °C) was dispensed (130 μl/well). The assay plate was placed on a shaker for 15 min. Remaining precipitates were suspended by pipetting up and down with a multichannel pipette before measuring the absorption at 570 nm on a microtiter plate reader using 630 nm as a reference wavelength.
(§3) Figure S1: Step-wise evolution of the cytotoxicity assay towards the use of human cell lines. Related to Figure 2. Cytotoxicity assays were carried out with two compound sets on hiPSC line ZIPi013-E and HDFf, from which they were derived. […] A) 5 day MTT assay and manual handling. B) As in A), but using CellTiter-Glo® viability assay. All points in the graph represent the mean of 6 individual data points, including the standard error.

mESC-D3 [3] = assay: Conventional mouse ES-D3 differentiation assay in hanging drop format (petri dish; cardiomyocyte contraction, day 10); type: cell-based; settings: manual; beating cardiomyocytes at day 10; in brackets the two individual experiments
Description: Separate Petri dishes were used for each concentration of test compound, untreated control, and solvent control. […] The EB suspension was incubated for 2 days. On day five of the assay, a fresh compound dilution series was prepared in media and transferred into 24-well cell culture plates (1 ml/well, Greiner bio-one, Cat. No. 662641). A separate 24-well plate was used for each compound concentration, untreated control, and solvent control (24 wells per condition). One EB was transferred from the Petri dish into each well of the 24-well plate. After further 5 days of incubation (= day 10 of the assay), cardiomyocyte contraction was determined in each well under the light microscope.

[4] = Manual human EST cytotoxicity assay, CellTiter-Glo, 5 d; settings: human
Description: as §1
(§4) 96-well cell culture plates were coated with gelatin (0.1%) before plating mESC-D3. All peripheral wells of the assay plate were filled with 200 μl growth media. In order to assess compound toxicity on mESC-D3 and NIH/3T3 cells, cell suspensions of NIH/3T3, and mESC-D3 were prepared in growth media (1 × 10^4 cells/ml) and were transferred to all remaining wells (50 μl/well). A 7-point dilution series in growth media was prepared for each test compound and was transferred to the assay plate 2 h after cell seeding (150 μl/well). Afterward, the cells were incubated in a humidified atmosphere at 37 °C and 5% CO2. Three and 5 days after seeding the cell supernatant was replaced by freshly prepared compound solution (200 μl/well). Seven days after seeding the assay plate was taken out of the incubator and located at room temperature for 10 min, before cell supernatant was aspirated (80 μl/well) and CellTiter-Glo® reagent was dispensed (50 μl/well). The assay plate was placed on a shaker for 1 min and after another 10 min incubation at room temperature in the dark the luminescence signal was detected on a plate reader.
as §3

[5] = Manual MTT cell viability assay, 7 d; type: cell-based, mouse; settings: mouse, manual, in brackets the two individual experiments
Description: as §2
(§5) Toxicity data from the MTT and CellTiter-Glo Assay was normalized against the vehicle control (100% viability) and plotted against the logarithmic compound concentration.

[6] = Automated CellTiter-Glo luminescent cell viability (cytotoxicity) assay, 5 d; settings: mouse
Description: The CellTiter-Glo® luminescent cell viability assay (Promega, Cat. No. G7573) was automated in 96-well format on the lab automation platform Fluent® (Tecan, Männedorf, Switzerland). The procedure allowed the testing of six compounds in mESC-D3 and NIH/3T3 cells in parallel. On the first day, PBS was dispensed into the peripheral wells of the assay plates (200 μl/well) using the Multiple Channel Arm (MCA). Mouse ES-D3 and NIH/3T3 cells were plated (50 μl/well, 1 × 10^4 cells/ml)) using the Flexible Channel Arm (FCA) and transported into the Cytomat™ 10 (Thermo Fisher Scientific) for incubation using the Robotic Gripper Arm (RGA). A 7-point dilution series of the test compounds and control solutions were prepared in PBS or DMSO (Carl Roth, Cat. No. HN47.1) under the laminar flow, transferred to a 96-well 0.5-ml Masterblock plate (Greiner bio-one, Cat. No. 786261) and placed on the worktable. On the Fluent the compounds were transferred to a 96-well 2-ml Masterblock plate (Greiner bio-one, Cat. No. 780271) and further diluted in growth media using the FCA. Two hours after cell plating compounds and controls were transferred to the assay plate with the FCA (150 μl/well) and transported back in the Cytomat 10. On day three of the assay, the media was exchanged using the MCA: old media was aspirated and dispensed into a 96-deep-well plate (“waste”), freshly prepared compound, and control solution was dispensed into the assay plate. After two more days of incubation, the cell viability was determined using the CellTiter-Glo assay. The assay plates were transported from the Cytomat 10 to the Carousel (Tecan) to adapt to room temperature. After 25 min the cell supernatant was removed partially (80 μl/well) and CellTiter-Glo reagent was dispensed (50 μl/well). The assay plate was placed on a shaker for 1 min and afterward incubated 25 min in the Carousel before the Luminescence signal was detected on the Infinite M1000 Pro plate reader (Tecan).
as §5

[7] = Manual CellTiter-Glo luminescent cell viability assay (7 d or 5 d); type: cell-based, mouse; settings: mouse, in brackets the two individual experiments
Description: as §4, with “Seven days after seeding the assay plate was taken out of the incubator and located at room temperature for 10 min, before cell supernatant was aspirated (80 μl/well) and CellTiter-Glo® reagent was dispensed (50 μl/well).” left out
as §5

mESC-D3 [8] = tested on: mESC-D3; parameters: method as in Scholz et al. [1999]; settings: ZEBET value, 7 d result; ref Scholz et al. [1999]; cited from earlier work
NIH/3T3 = tested on: NIH/3T3; parameters: method as in Scholz et al. [1999]; settings: ZEBET value, 7 d result; ref Scholz et al. [1999]; cited from earlier work
[9] = tested on: mESC-D3 and NIH/3T3 cells; settings: manual murine EST assay; prediction model of Seiler and Spielmann 2011
mESC-D3 [10] = type: cell-based, mouse
Description: As an alternative to the morphological analysis at day 10, differentiation can be analyzed at day 7 of the assay by flow cytometry using the molecular flow EST (Buesen et al. [2009]). Previously, staining of cardiomyocytes was performed using an unconjugated primary monoclonal antibody directed against the sarcomeric MHC (clone MF20), followed by binding of a secondary biotin-conjugated goat anti-mouse IgG antibody which is then detected with the fluorochrome PE-SA (phycoerythrin-conjugated streptavidin) (Seiler and Spielmann [2011]). […] Of note, these experiments were performed in parallel with the same batch of spontaneously differentiated mESCs.
Embryoid bodies were formed in hanging drops (Petri dish) as already described. On day 5 of the assay, the EBs were transferred into a larger Petri dish and incubated for two more days at 37 °C, 5% CO2, and 95% humidity. Afterward, the EBs were dissociated using the Embryoid Body Dissociation Kit (Miltenyi Biotec, Cat. No. 130-096-348). EBs from two Petri dishes were harvested in one 15 ml tube and washed once with 10 ml PBS. The supernatant was discarded after centrifugation and a pre-warmed enzyme mix was added. The EB/enzyme mix was incubated for 10 min at 37 °C, dissociated for 1 min with a 1000 μl pipette, incubated for 5 min and mechanically dissociated again for 1 min. After the addition of 3 ml PBS, the cell suspension was passed through a 70-μm filter into a new 15-ml tube. The filter was then washed with 3 ml PBS and discarded afterward. The cell suspension was centrifuged for 5 min at 300 rpm. The supernatant was discarded afterward, cells were suspended in PBS and counted. For viability staining, 10^6 cells were suspended in 100 μl staining reagent (LIVE/DEAD™ Fixable Green Dead Stain Kit, Life Technologies, Cat. No. L34969), incubated for 30 min at 4 °C and washed with 1 ml PBS. For fixation, cells were suspended in 100 μl fixation buffer (BioLegend, Cat. No. 420801) and incubated 20 min at room temperature. For the intracellular staining, cells were washed twice with 1 ml permeabilization buffer (BioLegend, Cat. No. 421002) and suspended in 50 μl permeabilization buffer supplemented with 50 μl of pre-diluted (1:5) antibody (mouse IgG2B anti-human Myosin Heavy Chain APC-conjugated, mouse IgG2B APC-conjugated isotype control, R&D Systems, Cat. No. IC4470A). After 1 h incubation at room temperature cells were washed twice with 1 ml permeabilization buffer and suspended in FACS buffer. Within 2–3 h samples were measured on an LSR II flow cytometer (Beckton Dickinson). Data analysis was done using FlowJo software (Version 10.0.8; Tree Star).

[11] = HDFf (human dermal fibroblasts of fetal origin)
[12] = mESC-D3 cells, read-out: Cytotoxicity assay MTT, 7 d IC50 mESC-D3
[13] = mESC-D3 cells (mouse embryonic stem cells)
[14] = mESC-D3 cells, read-out: Cytotoxicity assay CTG, 5 d IC50 mESC-D3
[15] = mESC-D3 cells, read-out: Cytotoxicity assay CTG, 7 d IC50 mESC-D3
[16] = NIH/3T3 cells, read-out: Cytotoxicity assay MTT, 7 d IC50 NIH/3T3
[17] = NIH/3T3 cells, read-out: Cytotoxicity assay CTG, 5 d IC50 NIH/3T3
[18] = NIH/3T3 cells, read-out: Cytotoxicity assay CTG, 7 d IC50 NIH/ 3T3

| Compound | ID50 mESC-D3 (ZEBET) (mESC-D3 [1]) [µg/mL] | IC50 at 5 d [2, 11] [µg/mL] | IC50 at 5 d ([2]; hiPSC line ZIPi013-E) [µg/mL] | Differentiation assay in hanging drop (petri dish) ID50 mESC-D3 (mESC-D3 [3]) | IC50 at 5 d [4, 11] [µg/mL] | IC50 at 5 d ([4]; hiPSC line ZIPi013-E) [µg/mL] | IC50 at 7 d [5, 12] [µg/mL] | IC50 at 5 d [6, 13] [µg/mL] | IC50 at 5 d [7, 14] [µg/mL] | IC50 at 7 d [7, 15] [µg/mL] | IC50 mESC-D3 (ZEBET) (mESC-D3 [8]) [µg/mL] | IC50 at 7 d [5, 16] [µg/mL] | IC50 NIH/3T3 (ZEBET) (NIH/3T3) [µg/mL] | Compound classification [9] | IC50 at 5 d ([6]; NIH/3T3 cells) [µg/mL] | IC50 at 5 d [7, 17] [µg/mL] | IC50 at 7 d [7, 18] [µg/mL] | ID50 FACS (MHC-positive cells) (mESC-D3 [10]; flow cytometry, day 7) [µg/mL] | MHC-positive cells (mESC-D3 [10]; treated with 10 μg/ml, untreated 31% (hydroxyurea), 26% (fumonisine B1)) [%] |
| --- | --- | --- | --- | --- | --- | --- | --- | --- | --- | --- | --- | --- | --- | --- | --- | --- | --- | --- | --- |
| Cn1c(=O)c2c(ncn2C)n(C)c1=O [Caffeine, caffeine] | 185 (≈ 953 µM) | 358 (≈ 1850 µM) | 13.3 (≈ 68.3 µM) | 130 (130; > 200) µg/ml | 412 (≈ 2120 µM) | 43.6 (≈ 225 µM) | 152 (≈ 783 µM) | 138 (≈ 711 µM) | 172 (≈ 886 µM) | 119 (≈ 613 µM) | – | – | – | – | – | – | – | – | – |
| C[C@@H]1C[C@H]2[C@@H]3CCC4=CC(=O)C=C[C@]4(C)[C@@]3(F)[C@@H](O)C[C@]2(C)[C@@]1(O)C(=O)CO [Dexamethasone, dexamethasone] | 18.3 (≈ 46.6 µM) | – | – | 25.7 (29.1; 22.3) µg/ml | – | – | 23.5 (≈ 59.9 µM) | 18.7 (≈ 47.6 µM) | 15.7 (≈ 40 µM) | 20.8 (≈ 53 µM) | 23 (≈ 58.6 µM) | 49.2 (≈ 125 µM) | 26 (≈ 66.2 µM) | weak embryotoxicity | > 50 | 34.8 (≈ 88.7 µM) | 35.2 (≈ 89.7 µM) | – | – |
| O=c1[nH]cc(F)c(=O)[nH]1 [5-Fluorouracil, 5-fluorouracil] | 0.0289 (≈ 0.222 µM) | 0.195 (≈ 1.5 µM) | 0.223 (≈ 1.72 µM) | – | 0.186 (≈ 1.43 µM) | 0.0166 (≈ 0.128 µM) | 0.0395 (≈ 0.304 µM) | 0.0627 (≈ 0.482 µM) | 0.0493 (≈ 0.379 µM) | 0.0681 (≈ 0.524 µM) | 0.103 (≈ 0.792 µM) | 0.116 (≈ 0.892 µM) | 0.17 (≈ 1.31 µM) | strong embryotoxicity | 0.11 (≈ 0.846 µM) | 0.0958 (≈ 0.736 µM) | 0.128 (≈ 0.984 µM) | – | – |
| CCCC[C@@H](C)[C@@H](OC(=O)C[C@@H](CC(=O)O)C(=O)O)[C@H](C[C@@H](C)C[C@H](O)CCCC[C@@H](O)C[C@H](O)[C@H](C)N)OC(=O)C[C@@H](CC(=O)O)C(=O)O [Fumonisin, fumonisine B1] | – | – | – | – | – | – | – | – | – | – | – | – | – | – | – | – | – | 2.26 (≈ 3.13 µM) | 3 |
| CC1(C)S[C@@H]2[C@H](NC(=O)Cc3ccccc3)C(=O)N2[C@H]1C(=O)O [Penicillin G, penicillin G] | 3450 (≈ 10300 µM) | 822 (≈ 2460 µM) | 750 (≈ 2240 µM) | 1000 (> 1000; > 1000) µg/ml | 795 (≈ 2380 µM) | > 1000 | > 1000 | > 1000 | > 1000 | > 1000 | 2950 (≈ 8820 µM) | > 1000 | 1586 (≈ 4740 µM) | – | > 1000 | 992 (≈ 2970 µM) | > 1000 | – | – |
